# Entries after “also recorded” stand apart in the source; their conditions may differ.
# Key:
# [1] = test system: T47D, MDA-MB-231, LM, BoM, BrM cells; assay: Clonogenic assay; format: cell-based, human; conditions: 24 h exposure, 10 days; 1 µM paclitaxel and TSA, 10 µM 1–5
# Protocol: The effects of psammaplins on the colony-forming ability of single cells were assessed in a clonogenic assay. Cells seeded at low density were exposed to test compounds at the specified concentrations for 24 h. The conditioned media were replaced with growth media and the colonies formed from surviving single cells in 10 days.
# Figure 4 Effects of 1–5 and TSA (trichostatin A) on colony formation. Cells plated at low density were exposed to compounds (24 h) at specified concentrations (1 µM for paclitaxel and TSA, and 10 µM for 1–5). After a period of ten days, the cells were fixed and stained.
# For the clonogenic assay, exponentially grown cells were seeded at the density of 1000 cells/well into 6-well plates (Cellstar®, Greiner Bio-One GmbH, Kremsmünster, Austria) and incubated at 37 °C for 4 h to allow the cells to adhere. Compound addition was similar as above. After 24 h, the compound-containing conditioned media were replaced with fresh medium containing FBS (10%) and antibiotics. The incubation continued for another 10 days with a change of fresh medium every 5 days, the cells were fixed with methanol and stained with crystal violet (1 mg/mL in 20% ethanol), and the images were acquired with a Kodak digital camera.
# [2] = test system: BoM spheroids; assay: Cultrex 3D spheroid cell invasion assay; format: cell-based, human
# Protocol: In order to form metastatic lesions, metastasis-initiating tumor cells must invade and intravasate into the lymphatic vasculature and/or blood vessels. Psammaplins were evaluated in a Cultrex® 3-D cell invasion assay that monitors the invasion and migration of tumor cells grown as spheroids, which closely model in vivo pathophysiological conditions.
# Figure 5 Inhibition of bone metastatic BoM cell invasion. Tumor cell spheroids formed in a special spheroid formation extracellular matrix (ECM) were embedded in an invasion matrix containing 10% fetal bovine serum (FBS) in the presence and absence of compounds at the specified concentrations. Four days later (T96), cell invasion was recorded microscopically (the bar at the bottom right represents 100 µm).
# The 3D spheroid cell invasion assay was performed using a commercial kit, following the manufacturer’s instructions (Cultrex® 3D Spheroid Cell Invasion Assay, Trevigen, Gaithersburg, MD, USA). Briefly, exponentially grown MDA-MB-231, LM, BoM, and BrM cells were trypsinized, collected, and resuspended in serum-free DMEM/F12 media. For spheroid formation, 3000 cells were added in a volume of 50 µL serum-free DMEM/F12 media with 1× spheroid formation solution/well into a pre-cooled 96-well plate. The plate was centrifuged at 100× g for 5 min at 4 °C, incubated at 37 °C for 24 h, and the spheroids imaged using an Axiovert 40 CFL microscope (Zeiss, Oberkochen, Germany). The plate was placed on ice, the invasion mix added in a volume of 50 µL/well, centrifuged at 350× g for 5 min at 4 °C, and incubated at 37 °C for 1 h. Test compounds and controls were diluted to two times the final concentrations in DMEM/F12 media supplemented with FBS (10%) and antibiotics, and added in a volume of 100 µL/well. The incubation continued for another 4 days at 37 °C and the cells/spheroids imaged (T96).
# [3] = test system: HIF-1; assay: T47D cell-based reporter assay (pHRE-luc) for HIF-1 activity; design: species or system human; conditions: for HIF-1 activation (highest level): T47D pHRE-luc, 16 h, no stimulus, n = 3; for normalized ratio of pHRE-luc/pGL3-control: T47D
# Protocol: Cellular adaptation to hypoxia (low oxygen tension) is primarily mediated via the transcription factor hypoxia-inducible factor-1 (HIF-1), that regulates oxygen homeostasis by activating the expression of genes that increase oxygen availability and those that decrease oxygen consumption. […] In a T47D cell-based reporter assay, a lipid extract sample of the sponge Dendrilla lacunosa activated HIF-1 by 3.56-fold (NIH collection No. C025691, 10 μg mL^−1). Bioassay-guided fractionation of the extract sample (2.6 g) and chemical structure elucidation afforded five known compounds psammaplin E (1), (E,Z)-psammaplin A (2), (E,E)-psammaplin K (3), (E,E)-psammaplin A (4), and bisaprasin (5). To determine the effects of 1–5 on HIF-1 activity, concentration-response studies were performed in a T47D cell-based reporter assay (Figure 1B). An iron chelator (1,10-phenanthroline, 10 μM) was included as a positive control. Compounds 1–4 activated HIF-1 in a biphasic manner. […] Hypoxia (1% O2) and chemical hypoxia (iron chelators or transition metals) represent two common stimuli that activate HIF-1 [24, 25, 26]. Further studies were performed to determine the effects of 1–5 on HIF-1 activity in the presence of other stimuli (1,10-phenanthroline, Figure 1C; hypoxia, Figure 1D). While 1–4 acted synergistically with 1,10-phenanthroline and hypoxia to activate HIF-1, a biphasic pattern of activation similar to that in the absence of stimulus […] was observed. […] Previous studies reported that psammaplins inhibit histone deacetylase (HDAC) enzymes. To determine if HDAC inhibition non-specifically activates HIF-1, concentration-response studies were conducted in T47D cells transfected with the pGL3-control plasmid. […] One possible scenario is that these compounds incur significant amount of cellular stress at higher concentrations, leading to the inhibition of gene expression in general.
# Figure 1 Concentration-dependent biphasic effects of 1–4 on HIF-1 activation. (A) Structures of psammaplins isolated from Dendrilla lacunosa. (B) Concentration-response results of 1–5 in T47D cells transfected with pHRE-luc for HIF-1 activity. Test compounds were added at the increasing concentrations of 0.1, 0.3, 1, 3, 10, and 30 µM, as specified. The positive control 1,10-phenanthroline (1,10-phen) was used at 10 µM. Data shown are average ± standard deviation (n = 3). (C) Similar to described in (B) except that the pHRE-luc transfected T47D cells were exposed to test compounds in the presence of 10 µM 1,10-phen, and the data were normalized to the positive control (1,10-phen). (D) Similar to described in (C) except that hypoxic exposure (1% O2: 5% CO2: 94% N2, 16 h) was applied in place of 1,10-phen. (E) As described in (B) except that T47D cells were transfected with the pGL3-control construct. An asterisk “*” indicates p < 0.05 when compared to the controls (“Media” for B, D, and E; and “1,10-phen” for C).
# To monitor HIF-1 activity, T47D cells were transfected with the pHRE3-TK-Luc construct and the cell-based luciferase reporter assay was performed as described. Cells were exposed to test compounds in the absence and presence of 1,10-phenanthroline (10 μM) or hypoxic conditions (1% O2: 5% CO2: 94% N2) for 16 h. The cells were lysed and luciferase activity determined with a commercial kit (Promega, Madison, WI, USA). For the cell-based control reporter assay, T47D cells were transfected with the pGL3-control construct (Promega, Madison, WI, USA), exposed to test compounds for 16 h, and the luciferase reporter assay performed as described.
# [4] = test system: HDAC; assay: MDA-MB-435 cell-based HDAC assay (HDAC-Glo); conditions: MDA-MB-435 cells, 30 min incubation, n = 6 pooled from two experiments
# Protocol: Test compounds were added at specified concentrations to exponentially grown cells plated in 96-well plates. After 30 min incubation, the HDAC activity was determined using a commercial kit (HDAC-Glo™, Promega, Madison, WI, USA) and normalized to that of the dimethyl sulfoxide (DMSO) solvent control.
# Exponentially grown cells were seeded at the density of 5000 cells/well into 96-well plates (Corning, Corning, NY, USA) and incubated overnight. Compounds dissolved in DMSO were added to achieve the specified final concentrations (total volume: 100 μL, DMSO: 0.5%). The incubation continued for 30 min at 37 °C and the HDAC activity determined using a commercial luminescent assay (HDAC-Glo™, Promega, Madison, WI, USA).
# [5] = test system: CDKN1A mRNA; assay: Quantitative real time RT-PCR of CDKN1A mRNA in T47D cells; format: cell-based, human; conditions: 10 μM, 16 h
# Source text: (§1) Around 100 genes have been identified as HIF-1 target genes that encode proteins involved in various aspects of cellular physiology. While most of these genes are regulated in a cell type-specific manner, some are induced upon HIF-1 activation in most cell types. Based on availability and potency, compound 4 (a stereoisomer of 2) was selected for follow-up studies. The effects of 4 on the expression of HIF-1 target genes cyclin dependent kinase inhibitor 1A (CDKN1A) and vascular endothelial growth factor A (VEGFA) were examined by quantitative real time RT-PCR (Figure 2). The HIF-1 activator 1,10-phen (10 μM) and the pan-HDAC inhibitor TSA (0.1 and 1 μM, respectively) were included as positive controls. […]
# (§2) Figure 2 Effects of 4 and trichostatin A (TSA) on HIF-1 target gene expression. […] The levels of cyclin dependent kinase inhibitor 1A (CDKN1A) (A) and vascular endothelial growth factor (VEGF) (B) mRNA following treatments were determined by quantitative real time RT-PCR. […] The levels of cellular (C) and secreted VEGF protein (D) were determined by ELISA and normalized to the amount of cellular proteins. […]
# The effects of test samples on HIF-1 target gene expression were assessed in T47D cells. To determine the levels of CDKN1A and VEGF mRNA, quantitative real-time RT-PCR was performed as described. […]
# [6] = test system: VEGF mRNA; assay: Quantitative real time RT-PCR of VEGF mRNA in T47D cells; format: cell-based, human; conditions: 16 h, concentrations tested
# Source text: as §1, with “controls. In T47D cells, 4 and TSA each increased the levels of CDKN1A mRNA in a concentration-dependent manner (2.9-fold for 4 at 10 μM and 7.2-fold for TSA at 1 μM, Figure 2A). In contrast, neither 4 nor TSA exerted greater than 20% effect on the levels of VEGF mRNA (Figure 2B).” for “controls.”
# as §2
# (§3) The effects of test samples on HIF-1 target gene expression were assessed in T47D cells. To determine the levels of CDKN1A and VEGF mRNA, quantitative real-time RT-PCR was performed as described. To determine the levels of cellular and secreted VEGF proteins, T47D cells were exposed to compounds as described, the levels of VEGF proteins in the conditioned medium and cell lysate samples determined by ELISA [21], the amount of proteins in the cell lysate samples quantified using a micro BCA assay kit (Thermo Fisher Scientific, Rockford, IL, USA), and the level of VEGF proteins normalized to that of cellular proteins.
# [7] = test system: VEGF protein; assay: ELISA of cellular and secreted VEGF proteins in T47D cells; format: cell-based, human; conditions: normalized to cellular proteins
# Source text: Around 100 genes have been identified as HIF-1 target genes that encode proteins involved in various aspects of cellular physiology. While most of these genes are regulated in a cell type-specific manner, some are induced upon HIF-1 activation in most cell types. Based on availability and potency, compound 4 (a stereoisomer of 2) was selected for follow-up studies. The effects of 4 on the expression of HIF-1 target genes cyclin dependent kinase inhibitor 1A (CDKN1A) and vascular endothelial growth factor A (VEGFA) were examined by quantitative real time RT-PCR (Figure 2). The HIF-1 activator 1,10-phen (10 μM) and the pan-HDAC inhibitor TSA (0.1 and 1 μM, respectively) were included as positive controls. In T47D cells, 4 and TSA each increased the levels of CDKN1A mRNA in a concentration-dependent manner (2.9-fold for 4 at 10 μM and 7.2-fold for TSA at 1 μM, Figure 2A). In contrast, neither 4 nor TSA exerted greater than 20% effect on the levels of VEGF mRNA (Figure 2B). The gene VEGF encodes vascular endothelial growth factor A (a potent angiogenic factor) and agents that inhibit VEGF are in clinical use for cancer. The expression of cellular and secreted VEGF proteins was examined in T47D cells by ELISA assay.
# Figure 2 Effects of 4 and trichostatin A (TSA) on HIF-1 target gene expression. T47D cells were exposed to 4 and TSA at the specified concentrations for 16 h. The compound 1,10-phen (10 µM) was included as a positive control. The levels of cyclin dependent kinase inhibitor 1A (CDKN1A) (A) and vascular endothelial growth factor (VEGF) (B) mRNA following treatments were determined by quantitative real time RT-PCR. Relative levels of target gene mRNA normalized to an internal control (18S rRNA) are shown as average ± standard deviation (n = 3, one representative experiment). The levels of cellular (C) and secreted VEGF protein (D) were determined by ELISA and normalized to the amount of cellular proteins. Data shown are average + standard deviation (n = 3). An asterisk “*” indicates p < 0.05 when compared to the media control.
# as §3
compound,measurement,setting,value
CC(=O)O[C@H]1C(=O)[C@@]2(C)[C@H]([C@H](OC(=O)c3ccccc3)[C@]3(O)C[C@H](OC(=O)[C@H](O)[C@@H](NC(=O)c4ccccc4)c4ccccc4)C(C)=C1C3(C)C)[C@]1(OC(C)=O)CO[C@@H]1C[C@@H]2O [paclitaxel],colony formation,[1],blocked colony formation in all cell lines
same,size of the spheroids,"[2]; 96 h, in comparison to the HDAC inhibitors",more pronounced decrease in the size of the spheroids
"NC(=O)C(=O)NCCSSCCNC(=O)/C(Cc1ccc(O)c(Br)c1)=N/O [Compound 1, psammaplin E]",HIF-1 activation (highest level),[3]; 10 μM,12.01 ± 1.12 fold
same,normalized ratio of pHRE-luc/pGL3-control,[3]; 10 μM,2.64 fold
same,IC50,[4],0.257 µM
"O=C(NCCSSCCNC(=O)C(Cc1ccc(O)c(Br)c1)=NO)C(Cc1ccc(O)c(Br)c1)=NO [Compound 2, (E,Z)-psammaplin A]",HIF-1 activation (highest level),[3]; 3 μM,12.32 ± 0.70 fold
same,normalized ratio of pHRE-luc/pGL3-control,[3]; 3 μM,2.38 fold
same,IC50,[4],0.019 µM
"O=C(NCCSSCCNC(=O)/C(Cc1ccc(O)c(Br)c1)=N/O)/C(Cc1ccc(O)c(Br)c1)=N/O [Compound 4, (E,E)-psammaplin A]",HIF-1 activation (highest level),[3]; 3 μM,11.01 ± 0.71 fold
same,normalized ratio of pHRE-luc/pGL3-control,[3]; 3 μM,2.30 fold
same,increase in CDKN1A mRNA level,[5],2.9 fold
same,effect on the levels of VEGF mRNA,[6],≤ 20%
same,"VEGF expression, cellular protein",[7],None of the HDAC inhibitors examined (4 and TSA) increased VEGF protein levels
same,"VEGF expression, secreted protein",[7],None of the HDAC inhibitors examined (4 and TSA) increased VEGF protein levels
same,invasion of BoM spheroids into the extracellular matrix,"[2]; 96 h (T96), 4 and TSA at 48 h proliferation IC50",inhibited the invasion of BoM spheroids; also recorded: inhibited this invasion
same,IC50,[4],0.037 µM
